# Assay results from PMC12090182, “Repurposing of the RIPK1-Selective Benzo[1,4]oxazepin-4-one Scaffold for the Development of a Type III LIMK1/2 Inhibitor” (ACS Chemical Biology, 2025).
# Like-named read-outs stand apart in the source and are kept apart here.
# Tests used:
# Experiment in all cases: biochemical
# Type in all cases: binding
# [1] = biological target: 468 kinases including some pathogenic mutants (Homo sapiens, UniProt O00329); settings: PIK3CD (Entrez PIK3CD), 100 nM; read-out: Percent Control
# [2] = biological target: 468 kinases including some pathogenic mutants (Homo sapiens, UniProt Q9UBE8); settings: NLK (Entrez NLK), 100 nM; read-out: Percent Control
# [3] = biological target: 468 kinases including some pathogenic mutants (Homo sapiens, UniProt Q08881); settings: ITK (Entrez ITK), 100 nM; read-out: Percent Control
# [4] = biological target: 468 kinases including some pathogenic mutants (Homo sapiens, UniProt Q8IVH8); settings: MAP4K3 (Entrez MAP4K3), 100 nM; read-out: Percent Control
# [5] = biological target: 468 kinases including some pathogenic mutants (Homo sapiens, UniProt O75582); settings: 1000 nM, read-out: Percent Control
# [6] = biological target: 468 kinases including some pathogenic mutants (Homo sapiens, UniProt P06239); settings: LCK (Entrez LCK), 100 nM; read-out: Percent Control
# [7] = biological target: 468 kinases including some pathogenic mutants (Homo sapiens, UniProt P08581, Y1235D); settings: read-out: Percent Control
# [8] = biological target: 468 kinases including some pathogenic mutants (Homo sapiens, UniProt P22455); settings: FGFR4 (Entrez FGFR4), 100 nM; read-out: Percent Control
# [9] = biological target: 468 kinases including some pathogenic mutants (Homo sapiens, UniProt P37023); settings: ACVRL1 (Entrez ACVRL1), 100 nM; read-out: Percent Control
# [10] = biological target: 468 kinases including some pathogenic mutants (Homo sapiens, UniProt P07948); settings: LYN (Entrez LYN), 100 nM; read-out: Percent Control
# [11] = biological target: 468 kinases including some pathogenic mutants (Homo sapiens, UniProt Q9P289); settings: MST4 (Entrez MST4), 100 nM; read-out: Percent Control
# [12] = biological target: 468 kinases including some pathogenic mutants (Homo sapiens, UniProt Q06418); settings: TYRO3 (Entrez TYRO3), 100 nM; read-out: Percent Control
# [13] = biological target: 468 kinases including some pathogenic mutants (Homo sapiens, UniProt P42336, E545A); settings: read-out: Percent Control
# [14] = biological target: 468 kinases including some pathogenic mutants (Homo sapiens, UniProt Q8N568); settings: DCAMKL2 (Entrez DCLK2), 100 nM; read-out: Percent Control
# [15] = biological target: 468 kinases including some pathogenic mutants (Homo sapiens, UniProt P51451); settings: BLK (Entrez BLK), 100 nM; read-out: Percent Control
# [16] = biological target: 468 kinases including some pathogenic mutants (Homo sapiens, UniProt Q9UL54); settings: TAOK2 (Entrez TAOK2), 100 nM; read-out: Percent Control
# [17] = biological target: 468 kinases including some pathogenic mutants (Homo sapiens, UniProt P35916); settings: FLT4 (Entrez FLT4), 100 nM; read-out: Percent Control
# [18] = biological target: 468 kinases including some pathogenic mutants (Homo sapiens, UniProt Q59H18); settings: TNNI3K (Entrez TNNI3K), 100 nM; read-out: Percent Control
# [19] = biological target: 468 kinases including some pathogenic mutants (Homo sapiens, UniProt Q9Y2H1); settings: NDR2 (Entrez STK38L), 100 nM; read-out: Percent Control
# [20] = biological target: 468 kinases including some pathogenic mutants (Homo sapiens, UniProt P0C264); settings: SgK110 (Entrez SgK110), 1000 nM; read-out: Percent Control
# [21] = biological target: 468 kinases including some pathogenic mutants (Homo sapiens, UniProt Q9Y6R4); settings: MAP3K4 (Entrez MAP3K4), 100 nM; read-out: Percent Control
# [22] = biological target: 468 kinases including some pathogenic mutants (Homo sapiens, UniProt P00533, DEL752-759); settings: read-out: Percent Control
# [23] = biological target: 468 kinases including some pathogenic mutants (Homo sapiens, UniProt P10721, V559D/V654A); settings: read-out: Percent Control
# [24] = biological target: 468 kinases including some pathogenic mutants (Homo sapiens, UniProt Q9UQB9); settings: AURKC (Entrez AURKC), 100 nM; read-out: Percent Control
# [25] = biological target: 468 kinases including some pathogenic mutants (Homo sapiens, UniProt Q02779); settings: MLK2 (Entrez MAP3K10), 100 nM; read-out: Percent Control
# [26] = biological target: 468 kinases including some pathogenic mutants (Homo sapiens, UniProt O96013); settings: PAK4 (Entrez PAK4), 100 nM; read-out: Percent Control
# [27] = biological target: 468 kinases including some pathogenic mutants (Homo sapiens, UniProt Q9H2X6); settings: HIPK2 (Entrez HIPK2), 100 nM; read-out: Percent Control
# [28] = biological target: 468 kinases including some pathogenic mutants (Homo sapiens, UniProt Q13177); settings: PAK2 (Entrez PAK2), 100 nM; read-out: Percent Control
# [29] = biological target: 468 kinases including some pathogenic mutants (Homo sapiens, UniProt Q8NEV4); settings: MYO3A (Entrez MYO3A), 100 nM; read-out: Percent Control
# Chain of 468 kinases including some pathogenic mutants (Homo sapiens, UniProt O75582) (O75582 whole entry, change not shown): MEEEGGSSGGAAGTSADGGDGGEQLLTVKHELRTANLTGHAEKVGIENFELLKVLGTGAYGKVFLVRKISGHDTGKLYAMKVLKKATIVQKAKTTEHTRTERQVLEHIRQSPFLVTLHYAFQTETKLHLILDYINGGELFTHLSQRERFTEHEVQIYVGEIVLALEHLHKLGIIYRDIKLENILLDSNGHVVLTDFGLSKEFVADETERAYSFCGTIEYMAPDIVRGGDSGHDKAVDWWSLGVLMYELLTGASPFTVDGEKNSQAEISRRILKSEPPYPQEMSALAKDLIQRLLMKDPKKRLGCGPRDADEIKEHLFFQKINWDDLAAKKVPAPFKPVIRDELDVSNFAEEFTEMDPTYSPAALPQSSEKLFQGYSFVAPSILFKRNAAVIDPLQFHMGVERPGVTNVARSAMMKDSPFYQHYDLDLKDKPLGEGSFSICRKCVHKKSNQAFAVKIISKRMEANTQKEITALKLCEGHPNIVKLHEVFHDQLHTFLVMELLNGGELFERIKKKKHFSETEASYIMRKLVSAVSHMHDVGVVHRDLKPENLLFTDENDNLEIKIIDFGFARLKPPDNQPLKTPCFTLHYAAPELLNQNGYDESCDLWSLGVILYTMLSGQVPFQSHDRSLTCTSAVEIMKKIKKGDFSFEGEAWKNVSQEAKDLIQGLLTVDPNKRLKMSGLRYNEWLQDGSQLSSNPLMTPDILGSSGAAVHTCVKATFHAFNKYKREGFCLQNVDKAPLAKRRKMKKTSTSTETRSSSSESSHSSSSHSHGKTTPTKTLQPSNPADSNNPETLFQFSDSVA
# Chain of 468 kinases including some pathogenic mutants (Homo sapiens, UniProt Q8IVH8) (Q8IVH8 whole entry, change not shown): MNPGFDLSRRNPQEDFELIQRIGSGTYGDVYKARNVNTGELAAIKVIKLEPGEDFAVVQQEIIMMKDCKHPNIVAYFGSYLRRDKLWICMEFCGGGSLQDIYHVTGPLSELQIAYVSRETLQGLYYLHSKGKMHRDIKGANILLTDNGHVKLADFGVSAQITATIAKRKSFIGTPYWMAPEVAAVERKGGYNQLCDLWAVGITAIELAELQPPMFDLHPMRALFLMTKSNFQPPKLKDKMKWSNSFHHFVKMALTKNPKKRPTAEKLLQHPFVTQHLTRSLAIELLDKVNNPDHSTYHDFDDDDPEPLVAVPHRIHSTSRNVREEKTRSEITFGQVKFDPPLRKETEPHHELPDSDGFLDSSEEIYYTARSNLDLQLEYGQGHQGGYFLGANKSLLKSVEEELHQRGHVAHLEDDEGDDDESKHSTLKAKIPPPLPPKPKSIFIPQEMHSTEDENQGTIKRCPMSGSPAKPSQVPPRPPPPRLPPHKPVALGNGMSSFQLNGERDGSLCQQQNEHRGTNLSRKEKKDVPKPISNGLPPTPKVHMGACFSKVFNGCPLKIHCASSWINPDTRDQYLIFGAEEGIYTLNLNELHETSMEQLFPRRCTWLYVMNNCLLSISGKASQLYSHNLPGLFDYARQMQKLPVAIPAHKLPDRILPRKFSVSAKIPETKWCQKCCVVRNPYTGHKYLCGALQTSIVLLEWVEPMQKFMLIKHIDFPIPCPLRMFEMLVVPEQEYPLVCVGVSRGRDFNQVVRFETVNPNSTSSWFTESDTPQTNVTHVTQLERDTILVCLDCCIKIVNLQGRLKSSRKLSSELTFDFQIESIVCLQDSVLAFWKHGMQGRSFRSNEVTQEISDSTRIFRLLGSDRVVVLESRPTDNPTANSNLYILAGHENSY
# Chain of 468 kinases including some pathogenic mutants (Homo sapiens, UniProt Q9UQB9) (Q9UQB9 whole entry, change not shown): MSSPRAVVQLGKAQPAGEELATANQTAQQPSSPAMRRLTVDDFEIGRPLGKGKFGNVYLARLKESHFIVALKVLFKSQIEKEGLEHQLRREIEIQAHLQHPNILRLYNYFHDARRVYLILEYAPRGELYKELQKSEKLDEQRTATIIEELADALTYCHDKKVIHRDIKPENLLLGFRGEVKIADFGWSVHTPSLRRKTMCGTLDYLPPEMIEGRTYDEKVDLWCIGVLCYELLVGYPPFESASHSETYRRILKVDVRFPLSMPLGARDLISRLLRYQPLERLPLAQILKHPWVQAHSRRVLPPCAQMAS
# Chain of 468 kinases including some pathogenic mutants (Homo sapiens, UniProt P08581, Y1235D) (P08581 25-1390 Y1235D): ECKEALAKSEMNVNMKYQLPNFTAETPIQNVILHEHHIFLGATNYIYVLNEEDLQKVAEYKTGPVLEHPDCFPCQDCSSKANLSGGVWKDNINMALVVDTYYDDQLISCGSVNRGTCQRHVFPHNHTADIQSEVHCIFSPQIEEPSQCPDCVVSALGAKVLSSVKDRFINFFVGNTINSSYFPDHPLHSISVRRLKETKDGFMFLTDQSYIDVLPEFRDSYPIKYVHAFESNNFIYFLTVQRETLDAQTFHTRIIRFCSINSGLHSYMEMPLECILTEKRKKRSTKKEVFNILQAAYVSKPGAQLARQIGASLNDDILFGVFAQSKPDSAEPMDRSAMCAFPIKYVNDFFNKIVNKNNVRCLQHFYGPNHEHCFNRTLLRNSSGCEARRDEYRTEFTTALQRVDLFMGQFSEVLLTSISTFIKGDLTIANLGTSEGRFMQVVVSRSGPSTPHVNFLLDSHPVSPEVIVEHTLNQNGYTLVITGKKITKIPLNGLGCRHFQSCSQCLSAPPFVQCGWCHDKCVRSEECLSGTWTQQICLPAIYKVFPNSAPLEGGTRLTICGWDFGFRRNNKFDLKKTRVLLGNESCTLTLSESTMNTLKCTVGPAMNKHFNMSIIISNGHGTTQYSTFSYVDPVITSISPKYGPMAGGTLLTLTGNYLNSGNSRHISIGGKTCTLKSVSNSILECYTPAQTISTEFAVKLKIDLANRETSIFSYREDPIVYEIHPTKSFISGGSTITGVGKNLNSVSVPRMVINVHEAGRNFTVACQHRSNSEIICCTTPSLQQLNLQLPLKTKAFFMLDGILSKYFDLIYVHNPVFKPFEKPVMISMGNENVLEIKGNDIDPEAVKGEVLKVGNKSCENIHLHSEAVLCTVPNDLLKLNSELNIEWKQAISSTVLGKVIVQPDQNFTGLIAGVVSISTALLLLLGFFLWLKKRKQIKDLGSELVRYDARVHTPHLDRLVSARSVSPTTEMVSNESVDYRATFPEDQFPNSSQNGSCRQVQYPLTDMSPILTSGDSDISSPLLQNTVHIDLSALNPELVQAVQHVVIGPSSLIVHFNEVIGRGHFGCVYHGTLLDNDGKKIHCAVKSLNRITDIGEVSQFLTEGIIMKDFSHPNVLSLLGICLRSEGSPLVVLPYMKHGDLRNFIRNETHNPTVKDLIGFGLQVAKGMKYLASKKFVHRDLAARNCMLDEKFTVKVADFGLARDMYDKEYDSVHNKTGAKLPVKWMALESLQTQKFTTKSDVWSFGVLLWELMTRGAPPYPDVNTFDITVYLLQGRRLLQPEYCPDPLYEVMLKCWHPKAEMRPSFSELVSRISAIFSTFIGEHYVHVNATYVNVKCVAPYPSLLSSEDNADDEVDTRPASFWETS
# Chain of 468 kinases including some pathogenic mutants (Homo sapiens, UniProt Q9P289) (Q9P289 whole entry, change not shown): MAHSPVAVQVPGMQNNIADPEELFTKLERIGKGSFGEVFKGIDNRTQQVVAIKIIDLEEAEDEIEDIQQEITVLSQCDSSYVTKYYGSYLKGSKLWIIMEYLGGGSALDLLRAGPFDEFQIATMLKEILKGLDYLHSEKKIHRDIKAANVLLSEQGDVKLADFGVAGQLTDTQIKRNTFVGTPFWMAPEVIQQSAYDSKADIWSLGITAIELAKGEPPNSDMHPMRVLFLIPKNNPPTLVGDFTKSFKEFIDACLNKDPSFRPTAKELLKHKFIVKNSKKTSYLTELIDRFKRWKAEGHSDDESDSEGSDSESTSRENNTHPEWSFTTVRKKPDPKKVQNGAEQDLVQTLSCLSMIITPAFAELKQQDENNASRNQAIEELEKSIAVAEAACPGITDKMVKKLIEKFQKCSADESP
# Chain of 468 kinases including some pathogenic mutants (Homo sapiens, UniProt P42336, E545A) (P42336 whole entry E545A): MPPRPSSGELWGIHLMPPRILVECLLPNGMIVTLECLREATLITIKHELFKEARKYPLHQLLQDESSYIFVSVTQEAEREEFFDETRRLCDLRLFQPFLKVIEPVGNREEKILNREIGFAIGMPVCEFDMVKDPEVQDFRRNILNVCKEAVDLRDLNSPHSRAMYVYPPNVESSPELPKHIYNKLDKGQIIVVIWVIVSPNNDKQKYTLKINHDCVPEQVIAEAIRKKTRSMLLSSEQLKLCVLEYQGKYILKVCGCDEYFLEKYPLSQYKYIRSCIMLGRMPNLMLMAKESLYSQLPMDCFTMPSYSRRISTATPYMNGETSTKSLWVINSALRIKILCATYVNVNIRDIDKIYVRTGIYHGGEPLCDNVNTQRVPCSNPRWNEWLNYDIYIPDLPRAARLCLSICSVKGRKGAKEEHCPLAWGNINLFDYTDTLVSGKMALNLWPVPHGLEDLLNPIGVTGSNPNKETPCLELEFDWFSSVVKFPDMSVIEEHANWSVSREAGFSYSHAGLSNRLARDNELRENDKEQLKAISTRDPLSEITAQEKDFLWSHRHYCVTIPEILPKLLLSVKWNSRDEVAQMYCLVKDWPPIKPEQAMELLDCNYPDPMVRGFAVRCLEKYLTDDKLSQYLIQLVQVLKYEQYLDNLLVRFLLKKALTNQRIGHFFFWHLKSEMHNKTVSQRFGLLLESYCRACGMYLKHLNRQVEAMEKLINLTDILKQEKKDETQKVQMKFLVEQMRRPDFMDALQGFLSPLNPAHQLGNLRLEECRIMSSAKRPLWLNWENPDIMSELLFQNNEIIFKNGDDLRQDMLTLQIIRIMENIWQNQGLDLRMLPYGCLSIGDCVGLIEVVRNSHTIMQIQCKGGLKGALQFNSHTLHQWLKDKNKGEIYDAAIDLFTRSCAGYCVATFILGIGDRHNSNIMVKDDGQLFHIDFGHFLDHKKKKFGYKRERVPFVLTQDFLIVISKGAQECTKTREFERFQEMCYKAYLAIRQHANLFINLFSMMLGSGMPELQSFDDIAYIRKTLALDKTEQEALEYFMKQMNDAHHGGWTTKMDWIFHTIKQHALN
compound,measurement,setting,value
"CN1C(=O)[C@@H](N2CCc3c(nn(Cc4ccccc4)c3C(N)=O)C2=O)COc2cc(Cl)ccc21 [Compound 10, (S)-2-benzyl-6-(8-chloro-5-methyl-4-oxo-2,3,4,5-tetrahydrobenzo[b][1,4]oxazepin-3-yl)-7-oxo-4,5,6,7-tetrahydro-2H-pyrazolo[3,4-c]pyridine-3-carboxamide]",remaining activity at 0.1 µM,[1],60%
same,remaining activity at 0.1 µM,[2],91%
same,remaining activity at 0.1 µM,[3],79%
same,remaining activity at 0.1 µM,[4],83%
same,remaining activity at 1 µM,[5]; RPS6KA5(Kin.Dom.1-N-terminal) (Entrez RPS6KA5),100%
same,remaining activity at 1 µM,[5]; RPS6KA5(Kin.Dom.2-C-terminal) (Entrez RPS6KA5),100%
same,remaining activity at 0.1 µM,[6],100%
same,remaining activity at 0.1 µM,[7],87%
same,remaining activity at 0.1 µM,[8],81%
same,remaining activity at 0.1 µM,[9],73%
same,remaining activity at 0.1 µM,[10],100%
same,remaining activity at 0.1 µM,[11],77%
same,remaining activity at 0.1 µM,[12],100%
same,remaining activity at 1 µM,[13],100%
same,remaining activity at 0.1 µM,[14],100%
same,remaining activity at 0.1 µM,[15],84%
same,remaining activity at 0.1 µM,[16],100%
same,remaining activity at 0.1 µM,[17],76%
same,remaining activity at 0.1 µM,[18],82%
same,remaining activity at 0.1 µM,[19],71%
same,remaining activity at 1 µM,[20],100%
same,remaining activity at 0.1 µM,[21],79%
same,remaining activity at 0.1 µM,[22],100%
same,remaining activity at 0.1 µM,[23],82%
same,remaining activity at 0.1 µM,[24],67%
same,remaining activity at 0.1 µM,[25],64%
same,remaining activity at 0.1 µM,[26],100%
same,remaining activity at 0.1 µM,[27],78%
same,remaining activity at 0.1 µM,[28],88%
same,remaining activity at 0.1 µM,[29],83%
